T1: ANXA4 (Homo sapiens, UniProt P09525)
T1 construct: purchased Genscript lot N. U8886ED090-5/P3ED001
T1 sequence (P09525 1-319): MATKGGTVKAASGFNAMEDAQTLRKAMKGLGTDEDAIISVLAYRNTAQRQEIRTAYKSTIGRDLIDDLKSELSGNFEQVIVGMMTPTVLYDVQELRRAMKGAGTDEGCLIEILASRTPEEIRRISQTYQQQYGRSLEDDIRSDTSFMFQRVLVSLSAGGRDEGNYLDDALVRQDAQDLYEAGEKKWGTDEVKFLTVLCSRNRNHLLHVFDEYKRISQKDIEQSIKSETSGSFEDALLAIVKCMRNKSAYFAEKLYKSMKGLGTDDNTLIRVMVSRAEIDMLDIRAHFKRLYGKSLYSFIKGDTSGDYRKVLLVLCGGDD

T2: His-tag-ANXA4 (annexin A4) (UniProt P09525 1-319, in MST only: labelled with His-Tag Labeling Kit RED-tris-NTA (NT647 fluorophore))
T2 construct: annexin A4 (ANXA4); Probably human ANXA4, since the work is on human lung cancer cells; also called NT647-ANXA4; ANX4; source: expressed by Genscript (lot N. U8886ED090-5/P3ED001); not shown: His6, C-terminal, kept
T2 sequence (looked up): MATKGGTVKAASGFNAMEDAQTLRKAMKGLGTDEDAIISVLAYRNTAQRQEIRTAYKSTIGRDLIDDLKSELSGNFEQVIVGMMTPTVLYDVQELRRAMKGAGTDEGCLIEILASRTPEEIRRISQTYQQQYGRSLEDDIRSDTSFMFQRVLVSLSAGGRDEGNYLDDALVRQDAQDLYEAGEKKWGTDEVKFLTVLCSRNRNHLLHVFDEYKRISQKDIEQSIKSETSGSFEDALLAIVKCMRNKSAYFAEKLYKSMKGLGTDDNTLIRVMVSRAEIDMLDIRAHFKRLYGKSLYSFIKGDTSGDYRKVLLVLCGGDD

T3: His-tag-ANXA4 (annexin A4) (UniProt P09525 1-319, in MST only: labelled with His-Tag Labeling Kit RED-tris-NTA (NT647 fluorophore))
T3 chain: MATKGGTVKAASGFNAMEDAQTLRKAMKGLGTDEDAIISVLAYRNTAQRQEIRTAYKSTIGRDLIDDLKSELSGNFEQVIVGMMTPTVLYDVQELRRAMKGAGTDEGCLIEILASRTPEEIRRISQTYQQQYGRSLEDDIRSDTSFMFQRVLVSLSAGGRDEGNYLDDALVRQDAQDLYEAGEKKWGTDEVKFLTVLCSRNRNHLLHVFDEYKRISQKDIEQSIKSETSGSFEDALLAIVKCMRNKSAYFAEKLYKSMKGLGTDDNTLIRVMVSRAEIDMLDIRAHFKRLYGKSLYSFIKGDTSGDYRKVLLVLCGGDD


Assays:
[1] = test system: A549 cells; type: cell-based; settings: peptide (100 μM) + paclitaxel (800 nM); 72 h
Method: A549 were grown in appropriate medium (Sigma Aldrich, St. Louis, MO) supplemented with 10% fetal bovine serum (FBS) (Sigma Aldrich, St. Louis, MO), 1% penicillin/streptomycin (Sigma Aldrich, St. Louis, MO) at 37°C in a 5% CO2 incubator. A549, adenocarcinoma cells line, were treated using a combo of paclitaxel (800 nM, PTX) and peptides (10 μM, 50 μM, 100 µM). After 24, 48, and 72 h, 10 μL/well of CTG detection mix, from CellTiter-Glo Assay Kit (Promega Corp, Madison, United States), were added; plates were gently mixed, incubated for 10 min in the dark, and read using EnVision Multilabel 2103.  FIGURE 8 Inhibition of A549 cell viability in cells treated with paclitaxel (800 nM) and peptides 1–8 (100 μM). Cells were plated in triplicate in 384-well plates and treated with PTX and peptides (DMSO was used as a […] control) for 24, 48, or 72 h. Cell viability was measured using CellTiter assay as described in the Materials and Methods section. Cell viability was expressed as a percentage of control and each column represents the mean ± SD of three independent experiments.

[2] = biological target: T1, ANXA4; assay: NanoDSF thermal unfolding of ANXA4 with peptides; type: binding; settings: peptide 200 μM, protein 40 µM; for Tm (°C): ramp 20-95°C, Ctrl 48.5; for ΔTm at 200 µM: versus Ctrl
Method: The assay was carried out in PBS (pH 7.4, 5 mM CaCl2) buffer using 40 μM of protein and 200 μM of compounds. The samples were loaded into nanoDSF Grade Standard Capillaries (NanoTemper Technologies) and analyzed using the Prometheus NT.48 nanoDSF device (NanoTemper Technologies). Thermal unfolding of the protein was monitored using a linear thermal ramp (1°C/min; 20°C–95°C) with an excitation power of 90%. […] In control, the sample was replaced with buffer solution. Three independent measurements were carried out for each compound, and their mean is depicted. The fluorescence intensity ratio and its first derivative were calculated with the manufacturer’s software (PR.ThermControl, version 2.1.2).
NanoDSF is an advanced differential scanning fluorimetry method for measuring melting temperature (Tm) of peptide-protein complex. In nanoDSF, a protein in solution is exposed to a temperature gradient that leads to the unfolding of the protein. The intrinsic fluorescence of the protein, mainly originating from the aromatic sidechains of tyrosine and tryptophan residues, is examined. Upon unfolding, the environment of those residues alters because they become exposed to the solvent and, thus, their fluorescence intensity changes. The relation between fluorescence intensity changes and temperature gradient can be used to obtain a so-called apparent Tm.

[3] = test system: Annexin A4 translocation in A549 and Calu-2 lung cancer cells; design: method as in Gaudio et al., 2013; settings: A549 and Calu-2 lung cancer cells treated with paclitaxel; ref Gaudio et al., 2013; cited from earlier work
[4] = biological target: T2, His-tag-ANXA4 (annexin A4); assay: MST; Monolith NT.115pico; 40 nM NT647-labelled ANXA4 mixed 1:1 with serial dilutions of peptide (highest 50 uM); PBS pH 7.4, 5 mM CaCl2; 10 min at rt; standard-treated capillaries, high MST power, LED 10%; duplicates; settings: both partners purified
[5] = biological target: T3, His-tag-ANXA4 (annexin A4); assay: SPR
[6] = biological target: T2, His-tag-ANXA4 (annexin A4); assay: SPR; Biacore T200; His-tag-ANXA4 captured on anti-histidine antibody coupled to CM5 chip; peptide 0.08-5 uM injected at 25 C, 30 uL/min, 120 s association, 600 s dissociation; HBS-P+ pH 7.4 with 5 mM CaCl2; global 1:1 fit, KD = kd/ka; settings: both partners purified

Tm (°C) [2] [°C]	ΔTm at 200 µM [2] [°C]	Kd [4] [nM]	Kd [6] [nM]	Molecule	also measured
48.9	0.4			Ac-AHLIKPS-NH2 [peptide 8, AHLIKPS]	Biological activity in combination with paclitaxel compared to reference peptide 1 (in words) [1]: decrease of cell viability compared to reference peptide 1
49.1	0.6			Ac-QALIKPS-NH2 [peptide 7, QALIKPS]	Biological activity in combination with paclitaxel compared to reference peptide 1 (in words) [1]: slightly improves the paclitaxel cytotoxicity
48.9	0.4			Ac-QHAIKPS-NH2 [peptide 6, QHAIKPS]	Biological activity in combination with paclitaxel compared to reference peptide 1 (in words) [1]: slightly improves the paclitaxel cytotoxicity
49.2	0.7			Ac-QHLIAPS-NH2 [peptide 4, QHLIAPS]	
		1410		Ac-QHLAKPS-NH2 (FHIT residues 7-13 with Ile4 of the peptide replaced by Ala; numbers count on: the peptide (residue 1 = Gln7 of FHIT); Ile4 is I10 of FHIT; also called analogue 5; source: synthetic peptide (Fmoc solid phase, RP-HPLC purified)) [peptide 5 (QHLAKPS)]	
		3040	1520 ± 330	Ac-AHLIKPS-NH2 (FHIT residues 7-13 with Gln1 of the peptide replaced by Ala; numbers count on: the peptide (residue 1 = Gln7 of FHIT); Gln1 is Q7 of FHIT; also called analogue 8; source: synthetic peptide (Fmoc solid phase, RP-HPLC purified)) [peptide 8 (AHLIKPS)]	
		6400		Ac-QHAIKPS-NH2 (FHIT residues 7-13 with Leu3 of the peptide replaced by Ala; numbers count on: the peptide (residue 1 = Gln7 of FHIT); Leu3 is L9 of FHIT; also called derivative 6; source: synthetic peptide (Fmoc solid phase, RP-HPLC purified)) [peptide 6 (QHAIKPS)]	
		1130	850 ± 55	Ac-QALIKPS-NH2 (FHIT residues 7-13 with His2 of the peptide replaced by Ala; numbers count on: the peptide (residue 1 = Gln7 of FHIT); His2 is H8 of FHIT; also called derivative 7; source: synthetic peptide (Fmoc solid phase, RP-HPLC purified)) [peptide 7 (QALIKPS)]	
		146	53 ± 10	Ac-QHLIAPS-NH2 (FHIT residues 7-13 with Lys5 of the peptide replaced by Ala; numbers count on: the peptide (residue 1 = Gln7 of FHIT); Lys5 is K11 of FHIT; also called analogue 4; source: synthetic peptide (Fmoc solid phase, RP-HPLC purified)) [peptide 4 (QHLIAPS)]	

The remaining lines, values behind:

Molecule	Tm (°C) [2] [°C]	ΔTm at 200 µM [2] [°C]	Kd [4] [nM]	Kd [6] [nM]	also measured
Ac-QHLAKPS-NH2 [compound 5, QHLAKPS]	49.2	0.7			
Ac-QHLIKAS-NH2 [peptide 3, QHLIKAS]		0.5			
Ac-QHLIKPA-NH2 (N-terminus and C-terminus assumed) [peptide 2, QHLIKPA]	48.7	0.2			Biological activity in combination with paclitaxel compared to reference peptide 1 (in words) [1]: basically preserves the biological activity
Ac-QHLIKPS-NH2 [peptide 1, QHLIKPS]	48.6	0.1			Inhibition of Annexin A4 translocation from cytosol to plasma membrane [3]: inhibiting Annexin A4 translocation from cytosol to plasma membrane
Ac-QHLIKPS-NH2 (FHIT (fragile histidine triad protein), residues 7-13; also called FHIT (7-13); lead peptide; source: synthetic peptide (Fmoc solid phase, RP-HPLC purified)) [FHIT mimetic peptide 7-13 (peptide 1)]			4650	840 ± 50	Kd [5]: 1260 nM
Ac-QHLIKAS-NH2 (FHIT residues 7-13 with Pro6 of the peptide replaced by Ala; numbers count on: the peptide (residue 1 = Gln7 of FHIT); Pro6 is P12 of FHIT; also called analogue 3; source: synthetic peptide (Fmoc solid phase, RP-HPLC purified)) [peptide 3 (QHLIKAS)]			14	375 ± 20	
Ac-QHLIKPA-NH2 (FHIT residues 7-13 with Ser7 of the peptide replaced by Ala; numbers count on: the peptide (residue 1 = Gln7 of FHIT); Ser7 is S13 of FHIT; also called analogue 2; source: synthetic peptide (Fmoc solid phase, RP-HPLC purified)) [peptide 2 (QHLIKPA)]			218	552 ± 80	
